Experimental data as given in ChEMBL document CHEMBL1136409, “Design of novel N-(2,4-dioxo-1,2,3,4-tetrahydro-thieno[3,2-d]pyrimidin-7-yl)-guanidines as thymidine phosphorylase inhibitors, and flexible docking to a homology model” (Bioorg Med Chem Lett, 2003).

Each compound was assayed against T1, Thymidine phosphorylase (Homo sapiens, UniProt P19971) (assay: Binding affinity towards recombinant thymidine phosphorylase TP).
T1 sequence (P19971 whole entry): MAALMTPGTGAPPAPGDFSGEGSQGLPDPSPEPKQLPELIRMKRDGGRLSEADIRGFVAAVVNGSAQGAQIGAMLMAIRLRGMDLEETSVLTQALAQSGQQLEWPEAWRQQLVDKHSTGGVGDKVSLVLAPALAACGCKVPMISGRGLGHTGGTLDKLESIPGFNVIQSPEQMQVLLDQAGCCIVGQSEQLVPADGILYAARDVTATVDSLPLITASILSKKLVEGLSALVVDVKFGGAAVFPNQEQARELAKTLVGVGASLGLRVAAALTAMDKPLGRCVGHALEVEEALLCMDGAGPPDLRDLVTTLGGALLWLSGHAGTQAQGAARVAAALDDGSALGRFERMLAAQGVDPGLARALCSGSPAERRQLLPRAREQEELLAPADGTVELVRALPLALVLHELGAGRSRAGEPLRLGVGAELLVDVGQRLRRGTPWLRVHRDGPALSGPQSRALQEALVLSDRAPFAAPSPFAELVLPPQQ
Nc1cc2[nH]c(=O)[nH]c(=O)c2s1 was tested, and the Ki was > 300 µM.
For N=C(N)Nc1cc2[nH]c(=O)[nH]c(=O)c2s1, the Ki was > 2400 µM.
Nc1csc2c(=O)[nH]c(=O)[nH]c12 was tested, and the Ki was > 600 µM.
